Data as given in PubChem BioAssay AID504313 (Emory University Molecular Libraries Screening Center, 2011).
Activity calls are given as the source filed them. The rule behind the calls is not given here.

Target: X-box-binding protein 1 (Homo sapiens) (UniProt P17861)
Experiment: inhibitors of XBP1 reporter signal, dose response, counter-screen, cell-based (AID 504313);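 note: CHO cells carrying an XBP1 reporter stimulated with tunicamycin; potency is for inhibition of the tunicamycin-induced reporter signal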
Settings: XBP1 reporter cell assay, percent of control

Compound	IC50
Cc1nn(C(C)(C)C)c(C)c1/C=N/OC(=O)Nc1ccc(Cl)cc1	< 0.16 µM
OC(CNCC(c1ccc(Cl)cc1Cl)c1c[nH]c2ccccc12)c1ccccc1 (stereo unspecified)	inactive
Cc1ccc(N(c2ncnc(N)c2[N+](=O)[O-])C2CCCCC2)cc1	> 10 µM (inactive)
CC1CCN(S(=O)(=O)c2ccc3c(c2)C(=NO)c2cc(S(=O)(=O)N4CCC(C)CC4)ccc2-3)CC1	1.27 µM
CCOC(=O)CN1C(c2ccc(O)cc2)Nc2ccc(Br)cc2C1c1ccccc1 (stereo unspecified)	> 10 µM (inactive)
CCNc1nc(Oc2c(Cl)cccc2Cl)cc(C(F)(F)F)n1	> 10 µM (inactive)
CCOc1ccc(-n2c(SCC(=O)Nc3ccc(Br)cc3)nc3n[nH]c(C)c3c2=N)cc1	> 10 µM (inactive)
Cc1cc2c(cc1C)CSC(c1c(O)ccc3ccccc13)SC2	> 10 µM (inactive)
COc1cc2c(cc1OC)C(c1ccccc1)N(C(=O)CCl)CC2 (stereo unspecified)	inactive
Cc1cc(/C=N/n2cnnc2)c(C)n1-c1ccc(OCc2ccccc2F)cc1	4.85 µM
COc1oc(-c2ccc(Cl)cc2)nc1C(F)(F)F	inactive
O=C(Nc1ccc(S(=O)(=O)N2CCOCC2)cc1)c1ccc(CN2CCc3ccccc3C2)cc1	inactive
O=C1C(Cl)=C(Nc2ccccc2)C(=O)c2ccccc21	inactive
COc1cc(C)nc(N2CCCC(C(=O)Nc3cccc(Cl)c3C)C2)n1 (stereo unspecified)	> 10 µM (inactive)
FC(F)(F)c1cccc(NC(=S)NC(c2ccccc2)c2ccccc2)c1	> 10 µM (inactive)
CC(C)CCn1c(=O)c(C(=O)N/N=C/c2cccc(F)c2)c(O)c2ccccc21	3.49 µM
CN1/C(=C/C(=O)c2nc(S(C)(=O)=O)ncc2Cl)C(C)(C)c2ccccc21	inactive
CC1=C(C)/C(=N\OS(=O)(=O)c2ccc(C)cc2)C=CC1=O	1.63 µM
Cc1cccnc1NC(=O)c1c(O)c2ccccc2n(C)c1=O	inactive
O=S(=O)(C/C(=C/CO)S(=O)(=O)c1ccccc1)c1ccccc1	3.44 µM
COc1ccc(/C=C2\SC(=S)N(CCCC(=O)Nc3ccc(O)cc3)C2=O)cc1	< 0.16 µM

Compound	IC50
Cc1ccc(NP(=O)(Oc2ccccc2F)Oc2ccccc2F)cc1	inactive
O=C(/C=C/c1ccccc1)Nc1cccc(C(=O)O)c1	inactive
Cc1cc(Br)c2c(c1)/C(=C/C(=O)c1cccs1)C(=O)N2	> 10 µM (inactive)
COc1ccc(-c2nn(-c3ccccc3)cc2/C=N/N2C(=O)CSC2=S)cc1	> 10 µM (inactive)
COC(=O)c1ccc2c(=O)n(CCCCCC(=O)N3CCN(c4ccccc4)CC3)c(=O)[nH]c2c1	> 10 µM (inactive)
Cc1ccc(-c2nn(-c3ccccc3)cc2/C=N/NC(=O)c2ccc(Br)o2)cc1	inactive
COc1ccc(/C=N\NC(=O)COc2ccc(C(C)(C)C)cc2)cc1Cn1nc(C)cc1C	inactive
CC(/C=N/n1c(C2CCCCC2)n[nH]c1=S)=C\c1ccccc1	> 10 µM (inactive)
CCCCn1c(N2CCC(Cc3ccccc3)CC2)nc2c1c(=O)[nH]c(=O)n2C	> 10 µM (inactive)
COc1cc(/C=C2\CC/C(=C\c3cc(OC)c(O)c(OC)c3)C2=O)cc(OC)c1O	inactive
CCSc1nc2ccccc2n1C(=O)/C=C/c1ccc(OC)c(OC)c1	4.84 µM
Nc1nc(-c2ccccc2)c(N=Nc2ccccc2Cl)s1	inactive
Cc1ccc(C(=O)CC(=O)c2cc(Cl)ccc2O)cc1	inactive
C#CC(=O)N(c1cc(OC)ccc1OC)C(C(=O)NC1CCCC1)c1cccs1 (stereo unspecified)	inactive
Cc1ccn2cc(-c3cc4ccccc4oc3=O)nc2c1	inactive
Cc1ccc(/C=N/N2C(=S)SC(C)(C)C2N(O)C(=O)Nc2ccc([N+](=O)[O-])cc2)cc1 (stereo unspecified)	3.54 µM
Cc1cc(Cl)ccc1OCc1n[nH]c(=S)n1C1CCCCC1	inactive
CCN1C=CC(=C2C(=O)c3ccccc3C2=O)C=C1	inactive
O=C(N/N=C/c1ccc(F)cc1)c1c(O)c2ccccc2[nH]c1=O	> 10 µM (inactive)
O=c1c(Br)c(Br)cnn1-c1ccccc1	inactive
CCN(CC)CCn1c(SCC(=O)Nc2ccc(F)cc2)nc2c(sc3ccccc32)c1=O	> 10 µM (inactive)

Compound	IC50
O=C(CCl)Nc1cc(-c2ccccc2)nn1-c1ccccc1	inactive
CCC(NC(=O)Nc1nnc(C(F)(F)F)s1)(C(F)(F)F)C(F)(F)F	2 µM
Cc1nn(-c2ccccc2Cl)c(Cl)c1/C=N/Nc1nc2ccccc2s1	< 0.16 µM
Cc1cccc(N=Nc2c(N)n[nH]c2-c2ccc(Cl)cc2)c1	> 10 µM (inactive)
O=C(/C=C/c1cccc([N+](=O)[O-])c1)n1cnc2ccccc21	inactive
COC(=O)/C(=C1/Oc2cc(C)oc(=O)c2S1)C(F)(F)F	2.94 µM
Cc1cccc(/C=N/Nc2ccc3ccccc3n2)c1	inactive
COc1ccc(N2C(=O)CC(Sc3nnnn3-c3ccc(F)cc3)C2=O)cc1 (stereo unspecified)	> 10 µM (inactive)
CCOC(=O)/C=C/S(=O)(=O)c1ccc(NC(C)=O)cc1	inactive
C=CCn1c(C)cc(C2=NNC(=NCC)SC2)c1C	< 0.16 µM (inactive)
Fc1ccc(-n2nnnc2-c2cnc(-c3cccs3)nc2C(F)(F)F)cc1	inactive
CCOc1cccc(CN2CCN(c3cccc(C(F)(F)F)c3)CC2)c1O	> 10 µM (inactive)
COc1cc(/C=C/C(=O)OC2CC3CCC2(C)C3(C)C)ccc1O (stereo unspecified)	> 10 µM (inactive)
O=C(Cn1c(C(F)(F)F)nc2ccccc21)N=Nc1c(O)[nH]c2ccc(Br)cc12	> 10 µM (inactive)
CC1=CC2/C=C(\C)CCC(O)C(O)/C=C/C(=O)C23C(=O)NC(CC(C)C)C3C1C (stereo unspecified)	inactive
CC1=C(C)/C(=N\OS(=O)(=O)c2ccccc2)C=CC1=O	2.89 µM
Cc1ccc(C(C(=O)NCc2ccco2)N(C(=O)CNC(=O)c2cccs2)c2c(C)cccc2C)cc1 (stereo unspecified)	> 10 µM (inactive)
O=C(OCn1ncc(Br)c(Br)c1=O)c1c(F)cccc1F	3.06 µM
CC(C)(C)OC(=O)NCCc1nnc(S(=O)(=O)Cc2ccc(Cl)cc2Cl)o1	4.44 µM
